Measured values as given in patent US9981037B2, “Combination therapy of beta-glycolipids and antibodies for the treatment of immune-related disorders” (HADASIT MEDICAL RESEARCH SERVICES AND DEVELOPMENT LTD., priority 2008, dated 2018).

Key:
ob/ob mice [1] = experiment: Metabolic syndrome model in ob/ob mice: serum glucose, AST, ALT, cholesterol, weight after oral feeding; type: in vivo
Description: Mice were fed a total volume of 0.2 ml by gastric intubation with an 18-gauge stainless steel feeding needle (Thomas Scientific). Mice were fed once a day for five consecutive days with either phosphate-buffered saline (PBS), hamster isotype control (IC 5 μg/feeding), anti CD3 antibody (5 ug/feeding), or β-glucosylceramide (GC), 100 μg/feeding (dissolved in ethanol and emulsified in PBS). Mice fed with the combination of anti-CD3 and GC received 5 ug anti-CD3 and 100 ug GC in 0.2 ml PBS. Mice were injected IP with 100 μg anti TGF-β one day before the feeding and than on alternative days another 4 injections, a total of 500 μg.
Sera from individual mice were obtained. Serum AST and ALT levels were measured by an automatic analyzer.
In order to investigate the potential effect of combining two different immune-modulatory compounds on an immune-related disorder such as the metabolic syndrome, the ob/ob leptin deficient mice that manifest insulin resistance, hypelipidemia, fatty liver, and diabetes, were used as an animal model.
Four groups of ob/ob mice were tested, groups 1 and 2 served as control groups (group of untreated mice and group of mice treated with GC and Isotype Control, respectively), group 3 were treated with anti CD3 (5 microgram) antibody and group 4 were orally administered with a combination of anti-CD3 (5 μg) antibody and β-glucosylceramide (GC, 100 μg) per dose for five consecutive days. Animals were assessed on days 10 and 28. The doses studied were based on previous studies of anti-CD3 and GC in animal models [Ochi, H., et al. Nat. Med. 12:627-635 (2006); Zigmond, E. et al. Gut 56:82-89 (2007); Ilan, Y. et al. Transplantation 83:458-467 (2007)]. Determination of hepatic fat content and inflammation was performed by measurement of serum Alanine aminotransferase (ALT) and Aspartate aminotransferase (AST) levels. Serum glucose and cholesterol levels were also assessed.

DCs from MLN = experiment: TGF-β and IL-10 expression in CD11C+ DCs from MLN by RT PCR; type: in vivo, mice; conditions: RT PCR relative to GAPDH; 3 days after feeding; reversed by anti-TGF-β
Description: MLN CD11C+ DCs were isolated by magnetic separation using anti CD11C microbeads (Miltenyi Biotec). Total RNA was isolated from cell pellets using the RNA easy Mini Kit (QIAGEN) and stored at −80° C. First strand cDNA synthesis was performed on 0.5-1 μg of total RNA for each RNA sample using Taqman reverse transcription reagents. The cDNA was amplified using sequence specific primers for IL-10, and TGF-β and real-time PCR mix (Applied Biosystems) in an ABI7500 cycler. The GAPDH gene was used as an endogenous control to normalize for differences in the amount of total RNA in each sample. All values were expressed as a fold increase or decrease relative to the expression of GAPDH.
To investigate the effect of feeding the anti-CD3 plus GC combination on DCs, the inventors first measured the expression of TGF-β and IL-10 in DCs from MLN. […] Injection of anti-TGF-β reversed the effect. The inventors then investigated the effect of DCs obtained from animals treated with the oral combination of anti-CD3 plus GC, or from the control PBS treated animals, on T-cells harvested from mice fed either with PBS or with the combination of anti-CD3 plus GC. T cells were stimulated with anti-CD3 in vitro. […]

MLN cells = experiment: Cytokine production (ELISA) by MLN cells or splenocytes of fed ob/ob mice stimulated in vitro with anti-CD3; type: in vivo; conditions: in vitro 1 μg/ml anti-CD3 stimulation; vs PBS
Description: For cytokine assays, splenocytes or MLN cells were grown (10^6 cells per well) in serum-free medium X-VIVO 20 (BioWhittaker) with 1 ug/ml soluble anti-CD3 antibody. Supernatants were collected after 40 h for IL-2, IL-4, IL6, IL-10, IFN-γ, and IL-17, or after 72 h for TGF-β and quantitative ELISA was performed using paired antibodies and recombinant cytokines obtained from PharMingen according to their recommendations. When purified T-cells ([…] cells per well) were checked for cytokine secretion, they were stimulated with 1 ug/ml anti-CD3 in the presence of DCs (10×10^3 cells per well) for 40 or 72 h and the cytokine content in the supernatant was measured as outlined above. The tissue cytokine profile was determined for gut, liver, and pancreas. Part of the organ was weighed and homogenized on ice with TISSUEMISER (Fisher Scientific) in buffer containing PBS/BSA/TWEEN and protein inhibitor tablets (Roche). […]
To investigate the potential mechanisms by which oral combination of anti-CD3 plus GC affected the metabolic abnormalities describe above, the inventors next measured cytokine production by MLN cells obtained from the different experimental groups, that were then stimulated in vitro with 1 μg/ml anti-CD3 for five days. […] The inventors next measured cytokine levels in supernatants from homogenized tissues from ob/ob treated mice. […]

ob/ob mice [2] = experiment: Pathologic analysis of pancreas, liver and muscle of ob/ob mice; type: in vivo; conditions: vs PBS
Description: The liver, pancreas, and muscle were removed from control or treated mice and placed in 4% formalin followed by paraffin embedding. Five sections were prepared from each organ. The tissues were stained for heamtoxylin eosin and liver sections were additionally stained with oil-red-o. All sections were blindly scored by a pathologist.
The inventors next investigated the beneficial effect of the combined oral composition of anti-CD3 plus GC treatment of ob/ob mice by pathologic analysis of pancreas, liver and muscle. […] In addition, a reversal of muscle fiber thinning and increased nuclei was clearly observed in animals treated with the oral combination of anti-CD3 plus GC.

For β-glucosylceramide [GC], the weight of animals (ob/ob mice [1]; compared to control) was “No change”, the “serum AST levels” value (ob/ob mice [1]; ob/ob mice fed daily for 5 days, 10 days after last feeding, PBS 416 U/l) was 310 U/l and the Serum cholesterol levels (ob/ob mice [1]; ob/ob mice fed daily for 5 days, PBS 218 mg %) was 225 mg %. For the same substance, the blood glucose (ob/ob mice [1]; ob/ob mice fed daily for 5 days, tested 10 days after last feeding, PBS 367 mg %) was 337 mg %, the “IL-10 expression in DCs from MLN” value (DCs from MLN) was “not” and the “TGF-β expression in DCs from MLN” value (DCs from MLN) was “not”. For the same substance, the “production of IL-10 by MLN cells” value (MLN cells) was “No effects”, the “production of TGF-β by MLN cells” value (MLN cells) was “No effects” and the hepatic fat accumulation (ob/ob mice [2]) was “some effect”. For the same substance, the pancreatic hyperplasia (ob/ob mice [2]) was “some effect”.
